Patent US11351178B2, “Selective HDAC6 inhibitors” (ITALFARMACO S.P.A., priority 2017, dated 2022)
Where two headings read alike, the source gives them in different places.

Tests used:
[1] = tested on: peripheral blood mononuclear cells (PBMCs); test: Cytotoxicity on PBMCs (CellTiter 96); assay type: cell-based; settings: PBMC, 72 h; read-out: PBMC TOXICITY (72 h)
Procedure, shortened: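 Cells seeded (2×10^4/well for 697, 5×10^5/well for PBMCs); compounds added after 24 h at 1–10000 nM (697) or 1.5–10000 nM (PBMCs) and incubated 72 h. Viability read by CellTiter 96 Aqueous One tetrazolium assay of mitochondrial function.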

[2] = Stability to Phase I metabolism in human S9 liver fraction; assay type: in vitro ADME
Procedure, shortened: (§1)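 Compounds were incubated with rat or human liver S9 fraction at 37 °C for up to 90 min. Reactions were quenched on ice with acidified acetonitrile and analysed by HPLC-UV or LC-MS/MS. Percent remaining versus time zero and intrinsic clearance were calculated.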

Stability in rat plasma = assay type: in vitro ADME; settings: after 4 hours, 37° C.
Procedure, shortened: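 Compounds incubated at 37° C in rat or human plasma at 50 μM (UV/HPLC) or 1 or 2 μM (LC-MS/MS) for 0–4 h. Reaction stopped with acidified acetonitrile on ice; percent remaining versus initial amount and plasma half-life calculated.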

[3] = Stability to Phase I metabolism in rat S9 liver fraction; assay type: in vitro ADME; settings: after 90 min, 37° C.
Procedure, shortened: as §1

HDAC9 = target: T1, HDAC9 (Homo sapiens, UniProt Q9UKV0); test: Enzymatic test HDAC9; assay type: biochemical; settings: Table 3
T1 construct: purchased BPS 50009
T1 sequence (Q9UKV0 1-1066 isoform Q9UKV0-5): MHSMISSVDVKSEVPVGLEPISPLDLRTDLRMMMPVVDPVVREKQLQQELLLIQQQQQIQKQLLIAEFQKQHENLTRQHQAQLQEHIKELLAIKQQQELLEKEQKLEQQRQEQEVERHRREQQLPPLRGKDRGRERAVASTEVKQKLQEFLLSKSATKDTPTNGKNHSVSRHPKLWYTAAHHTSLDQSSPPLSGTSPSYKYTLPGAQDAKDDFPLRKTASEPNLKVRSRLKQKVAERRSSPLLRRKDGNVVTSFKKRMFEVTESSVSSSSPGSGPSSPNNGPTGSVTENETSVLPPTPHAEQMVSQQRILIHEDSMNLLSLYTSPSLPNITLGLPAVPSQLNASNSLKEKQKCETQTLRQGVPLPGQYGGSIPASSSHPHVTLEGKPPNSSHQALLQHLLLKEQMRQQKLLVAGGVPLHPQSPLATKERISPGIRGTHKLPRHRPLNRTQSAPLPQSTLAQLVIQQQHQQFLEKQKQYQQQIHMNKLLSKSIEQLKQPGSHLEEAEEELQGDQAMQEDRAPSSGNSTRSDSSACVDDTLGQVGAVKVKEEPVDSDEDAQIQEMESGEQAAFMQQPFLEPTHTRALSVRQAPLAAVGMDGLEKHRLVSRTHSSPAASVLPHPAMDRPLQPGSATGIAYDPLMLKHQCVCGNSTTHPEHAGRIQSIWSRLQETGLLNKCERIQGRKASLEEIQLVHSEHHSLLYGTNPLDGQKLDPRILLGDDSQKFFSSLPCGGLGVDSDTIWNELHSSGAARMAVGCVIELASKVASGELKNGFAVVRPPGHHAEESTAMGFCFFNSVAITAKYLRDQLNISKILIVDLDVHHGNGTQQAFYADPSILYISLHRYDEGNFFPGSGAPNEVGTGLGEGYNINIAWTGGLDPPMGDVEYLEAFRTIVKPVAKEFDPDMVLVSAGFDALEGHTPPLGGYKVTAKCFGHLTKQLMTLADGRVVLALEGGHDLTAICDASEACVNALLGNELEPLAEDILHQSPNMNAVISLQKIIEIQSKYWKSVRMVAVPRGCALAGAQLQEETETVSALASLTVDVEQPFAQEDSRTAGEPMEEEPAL
Protocol: After a period of incubation at 30° C. (incubation times vary for different isoforms and are shown in table 1) 25 μL of solution containing the substrate were added. As substrate, FLUOR DE LYS® deacetylase substrate (Enzo Life Sciences, cat #BML-K1104, FdL), FLUOR DE LYS®-Green substrate (Enzo Life Sciences, cat #BML-K1572 FdL_G) and trifluoroacetyl-L-lysine (Tfal)-2× concentrated solution in 25 mM Tris-HCl, pH 8, 130 mM NaCl 0.05% Tween-20 10% glycerol) were used. Following a reaction period at 30° C.

recombinant human HDAC6 = target: T2, recombinant human HDAC6 (Homo sapiens, UniProt Q9UBN7); test: Enzymatic screening on recombinant human HDAC6; assay type: biochemical; settings: read-out: HDAC6 IC50
T2 sequence (Q9UBN7 1-1215): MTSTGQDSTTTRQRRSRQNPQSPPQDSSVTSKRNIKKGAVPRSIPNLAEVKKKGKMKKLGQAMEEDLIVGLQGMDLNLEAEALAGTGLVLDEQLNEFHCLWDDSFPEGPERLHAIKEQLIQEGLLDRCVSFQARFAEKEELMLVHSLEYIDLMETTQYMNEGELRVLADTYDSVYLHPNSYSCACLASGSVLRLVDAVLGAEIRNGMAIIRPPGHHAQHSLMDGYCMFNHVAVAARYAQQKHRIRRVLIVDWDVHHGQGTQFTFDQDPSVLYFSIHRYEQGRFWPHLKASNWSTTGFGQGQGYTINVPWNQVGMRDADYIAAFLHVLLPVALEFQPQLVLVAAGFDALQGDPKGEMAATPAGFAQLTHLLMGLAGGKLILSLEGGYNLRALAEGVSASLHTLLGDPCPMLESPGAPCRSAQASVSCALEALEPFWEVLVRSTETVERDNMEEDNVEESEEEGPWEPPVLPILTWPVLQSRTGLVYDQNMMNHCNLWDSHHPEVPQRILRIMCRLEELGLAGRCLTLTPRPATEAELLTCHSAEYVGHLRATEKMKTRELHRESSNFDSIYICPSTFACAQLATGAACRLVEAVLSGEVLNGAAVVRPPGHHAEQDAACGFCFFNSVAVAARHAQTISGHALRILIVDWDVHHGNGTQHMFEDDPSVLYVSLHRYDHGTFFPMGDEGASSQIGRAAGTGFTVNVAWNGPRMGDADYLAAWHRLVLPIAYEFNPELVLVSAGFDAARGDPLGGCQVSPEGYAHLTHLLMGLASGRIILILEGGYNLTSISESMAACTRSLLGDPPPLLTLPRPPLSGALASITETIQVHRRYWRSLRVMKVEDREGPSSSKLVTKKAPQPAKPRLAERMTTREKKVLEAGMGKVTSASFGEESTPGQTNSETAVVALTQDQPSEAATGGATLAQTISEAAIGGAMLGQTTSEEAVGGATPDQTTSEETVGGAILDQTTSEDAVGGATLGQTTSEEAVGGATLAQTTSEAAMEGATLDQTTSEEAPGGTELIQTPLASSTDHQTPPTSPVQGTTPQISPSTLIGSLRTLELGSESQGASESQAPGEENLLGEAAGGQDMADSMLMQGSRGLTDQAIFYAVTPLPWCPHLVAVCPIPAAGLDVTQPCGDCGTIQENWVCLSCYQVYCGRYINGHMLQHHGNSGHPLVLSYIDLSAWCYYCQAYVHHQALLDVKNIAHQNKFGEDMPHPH
Procedure, shortened: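 Recombinant human enzyme was incubated with compound at 30 °C for an isoform-dependent time, then substrate (FLUOR DE LYS, FLUOR DE LYS-Green or trifluoroacetyl-L-lysine) was added as a 2× solution in 25 mM Tris-HCl pH 8, 130 mM NaCl, 0.05% Tween-20, 10% glycerol. The deacetylation reaction then proceeded at 30 °C.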

[4] = human liver S9 fraction, after 90 min, 37° C.

O=C(NO)c1ccc(Cn2nnnc2-c2cccs2)cc1 [comp. 8, N-hydroxy-4-((5-(thiophen-2-yl)-1H-tetrazol-1-yl)methyl)benzamide]
IC50 [1]: 3500 nM
residual percentage in human S9 fraction [2, 4]: 100%
residual percentage in rat plasma (Stability in rat plasma): 62%
residual percentage in rat S9 fraction [3]: 82%

O=C(NO)c1ccc(Cn2nnc(-c3ccc(C(F)(F)F)cc3)n2)cc1 [comp. 23, 4-[[5-[4-(trifluoromethyl)phenyl]tetrazol-2-yl]methyl]benzenecarbohydroxamic acid]
IC50 (HDAC9): 2690 nM
residual percentage in rat plasma (Stability in rat plasma): 77%
residual percentage in rat S9 fraction [3]: 8%
IC50 (recombinant human HDAC6; Table 2): 11 nM
IC50 (recombinant human HDAC6; Table 3): 11 nM

Nn1c(Sc2ccc(C(=O)NO)cc2)nnc1-c1ccc(OC(F)F)cc1 [comp. 28, 4-[[4-amino-5-[4-(difluoromethoxy)phenyl]-1,2,4-triazol-3-yl]sulfanyl]benzenecarbohydroxamic acid]
IC50 (HDAC9): 328 nM
residual percentage in rat plasma (Stability in rat plasma): 90%
residual percentage in rat S9 fraction [3]: 68%
IC50 (recombinant human HDAC6; Table 2): 10 nM
IC50 (recombinant human HDAC6; Table 3): 10 nM

O=C(NO)c1ccc(Cn2nnc(-c3ccccc3F)n2)cc1 [comp. 33, 4-[[5-(2-fluorophenyl)tetrazol-2-yl]methyl]benzenecarbohydroxamic acid]
IC50 (HDAC9): 948 nM
residual percentage in rat plasma (Stability in rat plasma): 52%
residual percentage in rat S9 fraction [3]: 2%
IC50 (recombinant human HDAC6; Table 2): 3 nM
IC50 (recombinant human HDAC6; Table 3): 3 nM

O=C(NO)c1ccc(Cn2nnc(-c3cccs3)n2)cc1 [comp. 50, 4-[[5-(2-thienyl)tetrazol-2-yl]methyl]benzenecarbohydroxamic acid]
IC50 (HDAC9): 800 nM
IC50 (recombinant human HDAC6; Table 2): 2 nM
IC50 (recombinant human HDAC6; Table 3): 2 nM

O=C(NO)c1ccc(Cc2nnc(-c3ccc(F)cc3F)o2)cc1 [comp. 58, 4-((5-(2,4-difluorophenyl)-1,3,4-oxadiazol-2-yl)methyl)-N-hydroxybenzamide]
IC50 (HDAC9): 2170 nM
residual percentage in rat plasma (Stability in rat plasma): 106%
residual percentage in rat S9 fraction [3]: 15%
IC50 (recombinant human HDAC6; Table 2): 6 nM
IC50 (recombinant human HDAC6; Table 3): 6 nM

CN(C)S(=O)(=O)c1cccc(-c2nnn(Cc3ccc(C(=O)NO)cc3)n2)c1 [comp. 59, 4-[[5-[3-(dimethylsulfamoyl)phenyl]tetrazol-2-yl]methyl]benzenecarbohydroxamic acid]
IC50 (HDAC9): 1540 nM
residual percentage in rat plasma (Stability in rat plasma): 53%
residual percentage in rat S9 fraction [3]: 8%
IC50 (recombinant human HDAC6; Table 2): 7 nM
IC50 (recombinant human HDAC6; Table 3): 7 nM

CCN(CC)S(=O)(=O)c1cccc(-c2nnc(Sc3ccc(C(=O)NO)cc3)n2N)c1 [comp. 61, 4-[[4-amino-5-[3-(diethylsulfamoyl)phenyl]-1,2,4-triazol-3-yl]sulfanyl]benzenecarbohydroxamic acid]
IC50 (HDAC9): 884 nM
residual percentage in rat plasma (Stability in rat plasma): 71%
residual percentage in rat S9 fraction [3]: 49%
IC50 (recombinant human HDAC6; Table 2): 9 nM
IC50 (recombinant human HDAC6; Table 3): 9 nM

O=C(NO)c1cc(F)c(Cn2nnc(-c3cccs3)n2)c(F)c1 [comp. 65, 3,5-difluoro-4-[[5-(2-thienyl)tetrazol-2-yl]methyl]benzenecarbohydroxamic acid]
IC50 (HDAC9): 995 nM
residual percentage in rat plasma (Stability in rat plasma): 88%
residual percentage in rat S9 fraction [3]: 8%
IC50 (recombinant human HDAC6; Table 2): 6 nM
IC50 (recombinant human HDAC6; Table 3): 6 nM

CCN(CC)S(=O)(=O)c1cccc(-c2nnc(Sc3ccc(C(=O)NO)cc3)n2C)c1 [comp. 66, 4-[[5-[3-(diethylsulfamoyl)phenyl]-4-methyl-1,2,4-triazol-3-yl]sulfanyl]benzenecarbohydroxamic acid]
IC50 (HDAC9): 168 nM
residual percentage in rat plasma (Stability in rat plasma): 66%
residual percentage in rat S9 fraction [3]: 54%
IC50 (recombinant human HDAC6; Table 2): 6 nM
IC50 (recombinant human HDAC6; Table 3): 6 nM

CN(C)c1cccc(-c2nnc(Sc3c(F)cc(C(=O)NO)cc3F)n2C)c1 [comp. 80, 4-[[5-[3-(dimethylamino)phenyl]-4-methyl-1,2,4-triazol-3-yl]sulfanyl]-3,5-difluoro-benzenecarbohydroxamic acid]
IC50 (HDAC9): 426 nM
residual percentage in rat plasma (Stability in rat plasma): 77%
residual percentage in rat S9 fraction [3]: 32%
IC50 (recombinant human HDAC6; Table 2): 16 nM
IC50 (recombinant human HDAC6; Table 3): 16 nM

O=C(NO)c1cc(F)c(Cn2nnnc2-c2ncccn2)c(F)c1 [comp. 125, 3,5-difluoro-4-[(5-pyrimidin-2-yltetrazol-1-yl)methyl]benzenecarbohydroxamic acid]
IC50 [1]: > 10000 nM
residual percentage in human S9 fraction ([2]; human, 90 min, pH 7.4): 83%
residual percentage in rat plasma (Stability in rat plasma): 78%
residual percentage in rat S9 fraction [3]: 90%
IC50 (recombinant human HDAC6; Table 2): 17 nM

Cn1c(Sc2c(F)cc(C(=O)NO)cc2F)nnc1-c1cccc(CN2CCCCCC2)c1 [comp. 167, 4-[[5-[3-(azepan-1-ylmethyl)phenyl]-4-methyl-1,2,4-triazol-3-yl]sulfanyl]-3,5-difluoro-benzenecarbohydroxamic acid]
IC50 [1]: > 10000 nM
residual percentage in human S9 fraction [2, 4]: 78%
residual percentage in rat plasma (Stability in rat plasma): 85%
residual percentage in rat S9 fraction [3]: 55%
IC50 (recombinant human HDAC6; Table 2): 6 nM

Cn1c(Sc2c(F)cc(C(=O)NO)cc2F)nnc1-c1ccc(CN2CCCCCC2)cc1 [comp. 168, 4-[[5-[4-(azepan-1-ylmethyl)phenyl]-4-methyl-1,2,4-triazol-3-yl]sulfanyl]-3,5-difluoro-benzenecarbohydroxamic acid]
IC50 [1]: 7000 nM
IC50 (recombinant human HDAC6; Table 2): 7 nM

Nc1ccc(-c2nnn(Cc3c(F)cc(C(=O)NO)cc3F)n2)cc1 [comp. 171, 4-[[5-(4-aminophenyl)tetrazol-2-yl]methyl]-3,5-difluoro-benzenecarbohydroxamic acid]
IC50 [1]: > 10000 nM
residual percentage in human S9 fraction [2, 4]: 74%
residual percentage in rat plasma (Stability in rat plasma): 77%
residual percentage in rat S9 fraction [3]: 48%
IC50 (recombinant human HDAC6; Table 2): 4 nM

Cn1c(Sc2c(F)cc(C(=O)NO)cc2F)nnc1-c1cccnn1 [comp. 179, 3,5-difluoro-4-[(4-methyl-5-pyridazin-3-yl-1,2,4-triazol-3-yl)sulfanyl]benzenecarbohydroxamic acid]
IC50 [1]: > 10000 nM
residual percentage in human S9 fraction [2, 4]: 79%
residual percentage in rat plasma (Stability in rat plasma): 98%
residual percentage in rat S9 fraction [3]: 58%
IC50 (recombinant human HDAC6; Table 2): 11 nM

Cn1c(Sc2c(F)cc(C(=O)NO)cc2F)nnc1-c1ncccc1F [comp. 180, 3,5-difluoro-4-[[5-(3-fluoro-2-pyridyl)-4-methyl-1,2,4-triazol-3-yl]sulfanyl]benzenecarbohydroxamic acid]
IC50 [1]: > 10000 nM
residual percentage in human S9 fraction [2, 4]: 80%
residual percentage in rat plasma (Stability in rat plasma): 100%
residual percentage in rat S9 fraction [3]: 70%
IC50 (recombinant human HDAC6; Table 2): 6 nM

O=C(NO)c1cc(F)c(Cc2nnc(-c3ccncc3)s2)c(F)c1 [compound 195, 3,5-difluoro-4-[[5-(4-pyridyl)-1,3,4-thiadiazol-2-yl]methyl]benzenecarbohydroxamic acid]
IC50 [1]: > 10000 nM
residual percentage in human S9 fraction [2, 4]: 68%
residual percentage in rat plasma (Stability in rat plasma): 84%
residual percentage in rat S9 fraction [3]: 32%
IC50 (recombinant human HDAC6; Table 2): 4 nM
